Reference: patent US10046150B2, “Lysine delivery systems for blood coagulation” (Park City Bio, LLC, priority 2013, dated 2018)

Test system: nose bleed
Test: treatment of a nose bleed with a nose plug (tissue, gauze or absorbent body) carrying lysine powder
Type: in vivo
Method: As a control, regular tissue and regular gauze were used to treat a nose bleed by rolling or otherwise fashioning a nose plug from the materials, and no lysine was added. The tissues and gauze appear to absorb the blood, but the blood continues to flow. In some instances, the blood flow can be significant and require a large number of sequential tissues or gauze. Nose bleeds treated with tissues can last 10 minutes or more up to an hour or longer when the bleed is significant. In some instances a nose bleed can be from both nostrils and both nostrils have to be plugged with a nose plug.
The nose bleed often stops within 1 minute when the tissue includes lysine, compared a long period when only tissues are used. A significant bleed was stopped within 5 minutes when lysine was included in the gauze. […] Available lysine was present after the nose bleed was treated to stop blood flow. […] Accordingly, substantially less than 500 mg lysine (E.g., 5 mg) is needed to stop bleeding in a short time. The device including the tissue and the lysine powder is able to be withdrawn with the blood no longer flowing through the nose.
Additionally, there was still excess powder. The gauze was rolled up with the lysine powder at one end, and the lysine powder was inserted into the nose, then the gauze was released and allowed to expand and plug the nose.
FIG. 12—illustrate an embodiment of a method of making a blood coagulating device with a lysine reservoir. […] The gauze is not hemostatic (Walgreens Premium Rolled Gauze—for secure dressings and light absorption. The device is made by: forming an absorptive body to a size and shape of a sheet; placing lysine powder on a surface of the sheet, where the lysine may be anywhere, but shown to be placed along a center crease. Adhesive is used to stick the surface to itself when the substrate is folded at the center crease so that the folded body has the lysine at the fold. The additional adhesive is put on the surface that is showing, and the sheet is rolled into a cylindrical device. The device has the lysine in a multi-layered chamber with the lysine located at one end. […] The marked end of the controls is not inserted in the nose.

## NCCCC[C@H](N)C(=O)O [lysine]
Hemostat gauze (regenerated etherized and oxidized natural fiber cellulose) having about 250 mg lysine powder, slower bleed
  time until the nose bleed stopped: within a minute
Hemostat gauze having about 250 mg lysine powder, slower bleed
  time until the gauze could be removed: just over a minute
Nose bleed
  effect on blood flow / bleeding (in words): promotes clotting
Nose bleed, compared with control without lysine where stated
  blood absorbed by the device (in words): didn't absorb much blood
